{"source": "patent US20110184147A1", "about": "“ENZYME SUBSTRATE FOR LABELING OF PROTEIN” (priority 2008, published 2011)", "molecules": {"B1": {"name": "dual labeled protein: NK6-AP into which Dns-β-Ala-QG-biotin was introduced by MTG catalysis (conjugate)", "chain": "MKHKGSTPEMPVLENRAAQGDITAPGGARRLTGDQTAALRDSLSDKPAKNIILLIGDGMGDSEITAARNYAEGAGGFFKGIDALPLTGQYTHYALNKKTGKPDYVTDSAASATAWSTGVKTYNGALGVDIHEKDHPTILEMAKAAGLATGNVSTAELQDATPAALVAHVTSRKCYGPSATSEKCPGNALEKGGKGSITEQLLNARADVTLGGGAKTFAETATAGEWQGKTLREQAQARGYQLVSDAASLNSVTEANQQKPLLGLFADGNMPVRWLGPKATYHGNIDKPAVTCTPNPQRNDSVPTLAQMTDKAIELLSKNEKGFFLQVEGASIDKQDHAANPCGQIGETVDLDEAVQRALEFAKKEGNTLVIVTADHAHASQIVAPDTKAPGLTQALNTKDGAVMVMSYGNSEEDSQEHTGSQLRIAAYGPHAANVVGLTDQTDLFYTMKAALGLKLEHHHHHH"}}, "key": {"[1]": {"biological_target": "T1, NK6-AP (Escherichia coli, UniProt P00634)", "T1 construct": "NK6-AP; MKHKGSTPEMP-ALGLKLEHHHHHH; made in house", "T1 sequence (P00634 22-471)": "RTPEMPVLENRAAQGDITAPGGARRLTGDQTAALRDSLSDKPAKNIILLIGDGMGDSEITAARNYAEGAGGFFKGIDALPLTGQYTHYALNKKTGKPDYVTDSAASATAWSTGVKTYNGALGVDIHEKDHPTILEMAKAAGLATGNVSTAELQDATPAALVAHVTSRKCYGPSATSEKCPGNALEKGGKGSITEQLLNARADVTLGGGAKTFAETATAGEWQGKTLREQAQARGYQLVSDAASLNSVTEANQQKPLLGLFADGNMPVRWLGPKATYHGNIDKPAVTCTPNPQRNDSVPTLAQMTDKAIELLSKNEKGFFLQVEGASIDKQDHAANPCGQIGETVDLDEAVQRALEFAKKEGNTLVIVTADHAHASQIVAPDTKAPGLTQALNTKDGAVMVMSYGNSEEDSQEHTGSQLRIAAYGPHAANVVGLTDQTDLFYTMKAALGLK", "test": "Effect of modification on the enzymatic activity of NK6-AP (p-NPP)", "format": "biochemical", "details": "AP 28 nM, p-NPP 1 mM, pH 8.0, 27° C., with vs without MTG", "procedure": "The effect of introduction on the enzymatic activity was studied. In the study, p-nitrophenylphosphoric acid (p-NPP) was used as a substrate and the activities of the samples prepared in Experiment 2-2 were measured; AP would catalyze the dephosphorylation of p-NPP to form p-nitrophenol (p-NP). The reaction conditions for activity measurement were AP 28 nM, p-NPP 1 mM and pH 8.0 and at a controlled temperature of 27° C., the p-NP derived absorption at 410 nm was traced.\n(§1) The activities of the samples prepared in Experiment 2-2 were measured, with p-nitrophenylphosphoric acid (p-NPP) being used as a substrate; AP would catalyze the dephosphorylation of p-NPP to form p-nitrophenol (p-NP). The reaction conditions for activity measurement were AP 28 nM, p-NPP 1 mM and pH 8.0 and at a controlled temperature of 27° C., the p-NP derived absorption at 410 nm was traced.\nas §1, with “With” for “The activities of the samples prepared in Experiment 2-2 were measured, with”, “substrate, the sampled prepared in Experiment 2-4 were measured;” for “substrate;”, “(p-NP) (see below).” for “(p-NP).”"}, "[2]": {"biological_target": "T1, NK6-AP", "test": "Degree of labeling of dual labeled protein (absorbance at 280 nm and 330 nm)", "details": "after His-tag purification", "procedure": "By His-tag purification on a Ni-NTA column, the dual labeled protein was separated from an excess of Dns-β-Ala-QG-biotin. An excess of the imidazole used in the elution step was removed by gel filtration purification on a PD-10 column with 20 mM Tris-HCl (pH 8) being used as an elution buffer.\nThe resulting dual labeled protein was concentrated with a suction-type centrifugal evaporator and an attempt was made to calculate the degree of its labeling by measuring the absorbance at 280 nm and 330 nm."}, "[3]": {"biological_target": "T2, MTG (Streptomyces mobaraensis, UniProt P81453)", "T2 construct": "purchased AJINOMOTO (supplied as a gift)", "T2 sequence (P81453 77-407)": "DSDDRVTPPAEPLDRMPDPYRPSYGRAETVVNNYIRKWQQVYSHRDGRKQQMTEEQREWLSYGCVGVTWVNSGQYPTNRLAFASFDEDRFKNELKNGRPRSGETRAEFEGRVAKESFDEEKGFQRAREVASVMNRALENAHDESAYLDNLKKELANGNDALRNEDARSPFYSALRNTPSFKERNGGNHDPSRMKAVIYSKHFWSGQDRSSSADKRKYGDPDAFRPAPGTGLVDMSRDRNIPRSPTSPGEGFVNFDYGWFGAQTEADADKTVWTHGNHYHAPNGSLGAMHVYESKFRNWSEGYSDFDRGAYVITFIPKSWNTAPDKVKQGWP", "test": "MTG-catalyzed introduction of fluorescent substrates into NK6-AP (SDS-PAGE, fluorescent imager)", "format": "biochemical, microbial", "details": "NK6-AP 0.5 mg/ml, MTG 1 U/ml; for Reactivity of MTG for fluorescent substrate (introduction into NK6-AP): substrate 1 mM, 10 mM Tris-HCl pH 8, overnight 4° C.", "procedure": "To perform a binding reaction, the fluorescent substrate (FITC-ε-Acp-QG, FITC-β-Ala-QG, Flc-QG, TR-β-Ala-QG or Dns-ε-Acp-QG), NK6-AP and MTG were added to 10 mM Tris-HCl (pH 8) to give respective final concentrations of 1 mM, 0.5 mg/ml and 1 U/ml and they were thoroughly agitated and the resulting solution was left to stand overnight at 4° C. For the purpose of comparison, an MTG-free sample was prepared.\nAfter the reaction, the samples were subjected to SDS-polyacrylamide gel electrophoresis (SDS-PAGE). The gel from SDS-PAGE was examined with a fluorescent imager before it was stained with Coomassie Brilliant Blue (CBB) in solution. For the sample containing Dns-ε-Acp-QG, examination was made with a transilluminator.\n(§2) A study was made using FITC-β-Ala-QG as a fluorescent substrate. The reaction conditions for introducing FITC-β-Ala-QG into NK6-AP were as follows: FITC-β-Ala-QG, NK6-AP and MTG were added to 10 mM Tris-HCl (pH 8) to give respective final concentrations of 0.1 mM, 0.5 mg/ml and 0.1 U/ml and they were thoroughly agitated at 4° C. for 0-5 hours. To trace the binding, the gel from SDS-PAGE was analyzed by a fluorescent imager.\nas §2, with “1-1000 μM,” for “0.1 mM,”, “15 minutes. Tracing on” for “0-5 hours. To trace”, “sample after” for “binding,”, “reaction” for “gel from SDS-PAGE”, “performed” for “analyzed”, “the same procedure as in Experiment 2-4.” for “a fluorescent imager.”\nDns-β-Ala-QG-biotin, NK6-AP and MTG were added to 20 mM Tris-HCl (pH 8) to give respective final concentrations of 100 μM, 0.5 mg/ml, and 1 U/ml. For the purpose of comparison, an MTG-free sample was prepared. The ingredients were thoroughly agitated and the resulting solution was left to stand overnight at 4° C. for reaction.\nAfter the reaction, the samples were subjected to SDS-polyacrylamide gel electrophoresis (SDS-PAGE). The gel from SDS-PAGE was examined with a transilluminator before it was stained with Coomassie Brilliant Blue (CBB) in solution.\nTo a 50 mM buffer whose pH was varied over the range of from 5 to 9, FITC-β-Ala-QG, NK6-AP and MTG were added to give respective final concentrations of 0.1 mM, 0.5 mg/ml, and 0.1 U/ml. These ingredients were well stirred and left to stand at 4° C. for reaction. After 6-hr or 15-minute reaction, the sample was mixed with a sample buffer and heated at 95° C. for 15 minutes to stop the reaction. Thereafter, SDS-polyacrylamide gel electrophoresis (SDS-PAGE) was applied. The gel from SDS-PAGE was stained with Coomassie Brilliant Blue (CBB) and observed with a fluorescent imager.\n(§3) To 50 mM Tris-HCl (pH 8), FITC-β-Ala-QG, NK6-AP and MTG were added to give respective final concentrations of 0.1 mM, 0.5 mg/ml, and 0.001-1 U/ml. These ingredients were well stirred and left to stand at 4° C. for reaction. The reaction was stopped and evaluation was made by the same procedures as in Experiment 2-2.\nas §3, with “FITC-β-Ala-QG-alkyne,” for “FITC-β-Ala-QG,”, “0.1” for “0.001-1”, “For the purpose of comparison, a MTG-free sample was also prepared. Both samples” for “These ingredients”"}, "[4]": {"details": "fluorescein in FITC-β-Ala-QG; cited from earlier work"}, "[5]": {"biological_target": "T2, MTG", "test": "MTG-catalyzed introduction of fluorescent substrates into NK6-AP (SDS-PAGE, fluorescent imager)", "format": "biochemical, microbial", "details": "substrate 1 mM, NK6-AP 0.5 mg/ml, MTG 1 U/ml, 10 mM Tris-HCl pH 8, overnight 4° C.; listed as Dns-β-Acp-QG"}, "[6]": {"biological_target": "T2, MTG", "test": "MTG-catalyzed introduction of fluorescent substrates into anti-lysozyme IgG2a antibody", "format": "biochemical, microbial", "details": "substrate 1 mM, mouse anti-lysozyme IgG2a 0.5 mg/ml, MTG 1 U/ml, pH 7, overnight 4° C.; reduced SDS-PAGE", "procedure": "A fluorescent substrate (FITC-ε-Acp-QG, FITC-β-Ala-QG, TR-β-Ala-QG or […]), mouse-derived anti-lysozyme IgG2a antibody (monoclonal) and MTG were added to a 10 mM phosphate buffer (pH 7) to give respective final concentrations of 1 mM, 0.5 mg/ml and 1 U/ml. For the purpose of comparison, an MTG-free sample was prepared. The ingredients were thoroughly agitated and the resulting solution was left to stand overnight at 4° C.\nAfter the reaction, the samples were subjected to SDS-PAGE. The gel from SDS-PAGE was examined with a fluorescent imager before it was stained with a CBB dye solution. For the Dns-ε-Acp-QG containing sample, examination was made with a transilluminator."}, "[7]": {"system": "BSA (antigen)", "test": "Antigen recognizing ability by ELISA (rabbit-derived anti-BSA IgG antibody)", "format": "binding", "details": "rabbit-derived anti-BSA IgG antibody (polyclonal) modified by MTG", "procedure": "A study was made on samples that were prepared by introducing a fluorescent substrate (FITC-ε-Acp-QG or FITC-β-Ala-QG) into a rabbit-derived anti-BSA IgG antibody (polyclonal) under the same conditions as in Experiment 2-2.\nELISA was performed by the following procedure (FIG. 3-5). • 1) To a Black Plate, 5 mg/ml of BSA (antigen) was added in an amount of 150 µl/well and left to stand overnight at 37° C. • 2) The product of 1) was washed with PBST five times. • 3) Modified anti-BSA IgG antibodies were added in an amount of 60 µl/well and left to stand at room temperature for 5 hours. • 4) The product of 3) was washed with PBST five times. • 5) Examination was made with a fluorescent imager. • 6) A […] sample of AP-labeled anti-rabbit IgG IgG antibodies were added in an amount of 150 µl/well and left to stand at 37° C. for 3 hours. • 7) The product of 6) was washed with TBST five times. • 8) The substrate was added and 10 minutes later, fluorescence derived from the enzymatic reaction was examined with a fluorescent imager."}, "[8]": {"biological_target": "avidin (Gallus gallus, UniProt P02701)", "sequence (P02701 25-152, species assumed)": "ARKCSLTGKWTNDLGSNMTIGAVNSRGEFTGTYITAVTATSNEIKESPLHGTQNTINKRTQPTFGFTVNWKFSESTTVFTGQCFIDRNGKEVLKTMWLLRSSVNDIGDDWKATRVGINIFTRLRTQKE", "details": "cited from earlier work"}, "[9]": {"system": "avidin", "test": "Immobilizing the dual labeled protein on avidin-coated microplate", "format": "binding", "details": "1.5 μM, 37° C., 1 h; dansyl fluorescence and AP activity (ECF)", "procedure": "2-6. Immobilizing the Dual Labeled Protein on Microplate • 1) After His-tag purification, the dual labeled protein (1.5 μM) was dissolved in 20 mM Tris-HCl (pH 8) and added onto an avidin-coated microplate (product of Nunc) in an amount of 100 μl/well so that it would be immobilized by the interaction between biotin and avidin (37° C., 1 h). • 2) To observe the fluorescence derived from dansyl groups, 20 mM Tris-HCl (pH 8) was added in an amount of 100 μl/well and immobilization was verified by a fluorescent imager. • 3) A solution of ECF as a fluorescent substrate of AP was diluted 100 folds with 1 M Tris-HCl (pH 8) and added onto the plate in an amount of 100 μl/well for reaction with the immobilized AP (25° C., 5 min). (Before steps 2) and 3), a microplate washer was used to wash the plate with TBST (TBS+[…] Tween 20) three times each in an amount of 300 μl/well.)"}}, "note": "“Also recorded” adds a separate entry of the source. Square brackets hold non-standard residues; d marks the D form. Peptide text beside a SMILES is read from it. * marks the point of attachment. ξ: configuration not given here. Dansyl = CN(C)c1cccc2c(S(=O)(=O)*)cccc12; ξQ = NC(=O)CCC(N)C(=O)O; Ahx = NCCCCCC(=O)O", "data": [{"molecule": "CN(C)c1cccc2c(S(=O)(=O)NCCC(=O)NC(CCC(N)=O)C(=O)NCC(=O)NCCOCCOCCNC(=O)CCCC[C@@H]3SC[C@@H]4NC(=O)N[C@@H]43)cccc12", "note": "(stereo partly drawn) [Dns-β-Ala-QG-biotin]", "values": [{"measurement": "Relative activity of NK6-AP after MTG-catalyzed introduction", "setting": "[1]", "result": "hardly any difference in the activity of AP; also recorded: in no way affected by the introduction"}, {"measurement": "Degree of labeling (moles of dansyl groups / moles of NK6-AP)", "setting": "[2]", "result": 1.1}, {"measurement": "Reactivity of MTG for dual labeled substrate (introduction into NK6-AP)", "setting": "[3]; substrate 100 μM, 20 mM Tris-HCl pH 8, overnight 4° C.", "result": "had been introduced into NK6-AP; also recorded: confirmed the MTG-catalyzed introduction"}]}, {"molecule": "NC(=O)CCC(NC(=O)c1ccc(-c2c3ccc(=O)cc-3oc3cc(O)ccc23)c(C(=O)O)c1)C(=O)NCC(=O)O", "note": "(stereo not shown) [Flc-QG]", "values": [{"measurement": "Reactivity of MTG for fluorescent substrate (introduction into NK6-AP)", "setting": "[3]", "result": "not recognizable by MTG; also recorded: not recognized as a substrate"}]}, {"molecule": "fluorescein isothiocyanate [FITC]", "values": [{"measurement": "pKa", "setting": "[4]", "result": 6.4}]}, {"molecule": "CN(C)c1cccc2c(S(=O)(=O)NCCCCCC(=O)NC(CCC(N)=O)C(=O)NCC(=O)O)cccc12", "note": "(stereo not shown) [Dns-ε-Acp-QG] ({Dansyl-Ahx}-[ξQ]-Gly-OH)", "values": [{"measurement": "Reactivity of MTG for fluorescent substrate (introduction into NK6-AP)", "setting": "[5]", "result": "served as substrates of MTG"}, {"measurement": "Reactivity of antibody with fluorescent substrate by MTG catalysis", "setting": "[6]", "result": "H chains of the antibody are modified; also recorded: site-specific modification of the H chains in the antibody"}, {"measurement": "Reactivity of MTG for fluorescent substrate (introduction into NK6-AP)", "setting": "[3]", "result": "recognizable as a substrate of MTG"}]}, {"molecule": "NC(=O)CCC(NC(=O)CCCCCNC(=S)Nc1ccc(-c2c3ccc(=O)cc-3oc3cc(O)ccc23)c(C(=O)O)c1)C(=O)NCC(=O)O", "note": "(stereo not shown) [FITC-ε-Acp-QG]", "values": [{"measurement": "Antigen recognizing ability of modified antibody", "setting": "[7]", "result": "maintained its antigen recognizing ability"}, {"measurement": "Reactivity of antibody with fluorescent substrate by MTG catalysis", "setting": "[6]", "result": "H chains of the antibody are modified; also recorded: site-specific modification of the H chains in the antibody"}, {"measurement": "Reactivity of MTG for fluorescent substrate (introduction into NK6-AP)", "setting": "[3]", "result": "served as substrates of MTG; also recorded: recognizable as a substrate of MTG"}]}, {"molecule": "O=C(O)CCCC[C@@H]1SC[C@@H]2NC(=O)N[C@@H]21", "note": "[biotin]", "values": [{"measurement": "Ka", "setting": "[8]", "result": "10^15 M"}]}, {"molecule": "B1", "values": [{"measurement": "Immobilization on avidin-coated microplate", "setting": "[9]", "result": "immobilized on the microplate while retaining its function"}]}]}
